Measured values from patent US6632795B1, “Dolastatin-15 derivatives in combination with taxanes” (BASF Aktiengesellschaft, priority 1997, dated 2003).
Peptide text beside a SMILES is read from it.

Assays:
[1] = system: P388 tumor cells (murine lymphocytic leukemia cell line); assay: P388 in vivo tumor model (ascites, intraperitoneal implant); parameters: species or system mice; details: Q4Dx3, 1
Method: The P388 tumor model employs a murine lymphocytic leukemia cell line (See Schabel et al., Pharmac. Ther. A, 1:411-435). The P388 tumor cells used in this invention, were harvested from donor mice by peritoneal lavage at day 7 post transplant. 1×10^6 P388 tumor cells were then implanted intraperitoneally in a volume of 0.5 ml in mice.
A typical dosing regimen includes initiation of treatment approximately one day post transplant followed by treatment on days 5 and 9 post transplant. Generally the compounds of Formula I are administered intravenously (i.v.) and the paclitaxel, taxotere or modified taxane or taxoid analog is administered intraperitoneally (i.p.).
Therapeutic results of the combinations of the invention against P388 cells, are presented in terms of increase in lifespan reflected by the relative median survival time (MST) of treated (T) versus control (C) group (survival period for untreated mice is generally in the range of 11 to 13 days) and is represented as %T/C values. According to the National Cancer Institute guidelines a %T/C in the range or 128-190% indicates a drug with moderate to good activity. In addition, the Net log Cell Kill is used to compare efficacy of different schedules and combinations, and is calculated as follows: [formula]
Doubling Time=time required for control tumors to double once (0.4 days)
T and C=the median survival time (days) for the control (C) and treated (T) mice.
Duration of treatment with drug 0.332=Derived constant
1×10^6 P388 tumor cells were transplanted intraperitoneally in a volume of 0.5 ml in mice. Treatment was initiated approximately 1 day later followed by treatment on both day 5 and day 9, post transplant. Compound (xvii) was administered IV while paclitaxel was administered IP. […] The dosing was sequential with compound (xvii) being administered first followed by paclitaxel one hour later.

[2] = system: LX-1 human lung tumor xenograft; assay: LX-1 human tumor xenograft model; type: in vivo, human (xenograft in athymic nude mice); details: Q2Dx3, 5,12,19
Method: (§1) Human tumors from lung (LX-1), colon (CX-1) and prostate (PC-3) which had been grown in athymic nude mice were transplanted (xenografted) into new recipient mice, as is well known in the art. The transplanted tumor fragments were approximately 50 mg in size. The day of transplantation was designated as day 0. The combination therapy of the present invention was evaluated for anti-tumor efficacy following administration to the xenograft-bearing mice.
(§2) Combination therapy was accomplished by intravenous administration of both drugs. […] In other words, treatment consisted of 3 cycles, starting on days 5, 12 and 19 post tumor implantation. One cycle of treatment consisted of treatment every other day for a total of three times.
(§3) Tumor diameters and body weights were measured twice weekly. Tumor volumes were calculated using the diameters measured with Vernier calipers, and the formula:
(§4) (length×width^2)/2=mg of tumor weight
(§5) Mean tumor weights (MTW) were calculated for each treatment group, and T/C values determined for each group relative to the untreated control tumors.
(§6) Results are also presented as Net log Cell Kill and are calculated as follows: [formula]
(§7) T and C=The median days required for the control and treated tumors to reach a specified tumor size, in this instance 2000 mm^3.
(§8) Doubling Time=Time required for control tumors to double in size.
(§9) The Q2dx3; 5, 12 and 19 dosing regimen described above was used in this example. Paclitaxel was administered IV one hour after Compound (xvii) was administered IV.

[3] = system: CX-1 human colon tumor xenograft; assay: CX-1 human tumor xenograft model; type: in vivo, human (xenograft in athymic nude mice); details: Q2Dx3, 5,12,19
Method: as §1, §2, §3, §4, §5, §6, §7, §8, §9

[4] = system: PC-3 human prostate tumor xenograft; assay: PC-3 human tumor xenograft model; type: in vivo, human (xenograft in athymic nude mice); details: Q2Dx3, 5,12,19; for MTW d35 % T/C: mean tumor weight day 35; for R[…]: of 6 animals
Method: as §1, §2, §3, §4, §5, §6, §7, §8
The Q2dx3; 5, 12 and 19 dosing regimen described above was used in this example. Paclitaxel was administered IP one hour after Compound (xvii) was administered IV. The optimal single dose of both paclitaxel and Compound (xvii) was not determined.

[5] = system: National Cancer Institute's P388 lymphocytic leukemia cell line; details: cited from earlier work
[6] = cited from earlier work
[7] = paclitaxel 10 mg/kg IV alone, of 6 animals

## CC(=O)O[C@H]1C(=O)[C@@]2(C)[C@H]([C@H](OC(=O)c3ccccc3)[C@]3(O)C[C@H](OC(=O)[C@H](O)[C@@H](NC(=O)c4ccccc4)c4ccccc4)C(C)=C1C3(C)C)[C@]1(OC(C)=O)CO[C@@H]1C[C@@H]2O [Paclitaxel]
[1]; paclitaxel 10 mg/kg IP alone
  % T/C (median survival time treated vs control): 183%
  % Toxic Death: 0%
  Net Log Cell Kill: 1.33
[1]; paclitaxel 20 mg/kg IP alone
  % 60 Day Cures: 4%
  % T/C (median survival time treated vs control): 175%
  % Toxic Death: 0%
  Net Log Cell Kill: 0.66
[1]; paclitaxel 30 mg/kg IP alone
  % 60 Day Cures: 3%
  % T/C (median survival time treated vs control): 204%
  % Toxic Death: 8%
  Net Log Cell Kill: 2.99
[2]; paclitaxel 10 mg/kg IV alone
  % Toxic Death: 0%
  Net Log Cell Kill: −0.374
[2]; paclitaxel 10 mg/kg IV alone, mean tumor weight day 27
  MTW d27 % T/C: 10.5%
[2]; [7]
  R[…]: 2
[3]; paclitaxel 10 mg/kg IV alone
  Net Log Cell Kill: −0.124
[3]; paclitaxel 10 mg/kg IV alone, mean tumor weight day 55
  MTW d55 % T/C: 38.12%
[3]; [7]
  R[…]: 2
[4]; paclitaxel 10 mg/kg IP alone
  % Toxic Death: 0%
  Net Log Cell Kill: −0.672
  MTW d35 % T/C: 55.12%
  R[…]: 2
[4]; paclitaxel 20 mg/kg IP alone
  % Toxic Death: 0%
  Net Log Cell Kill: 1.98
  MTW d35 % T/C: 2.86%
[4]; paclitaxel 30 mg/kg IP alone
  % Toxic Death: 17%
  Net Log Cell Kill: toxic
  MTW d35 % T/C: 2%
  R[…]: 5

## CC(C)[C@H](NC(=O)[C@H](C(C)C)N(C)C)C(=O)N(C)[C@H](C(=O)N1CCC[C@H]1C(=O)N1CCC[C@H]1C(=O)NCc1ccccc1)C(C)C [Compound (xvii)] (HELM PEPTIDE1{[CC(C)[C@@H](C(=O)[*:2])N(C)C].V.[meV].P.P.[c1ccc(CN[*:1])cc1]}$$$$V2.0)
[1]; (xvii) 20 mg/kg IV alone
  % Toxic Death: 0%
[1]; (xvii) 40 mg/kg IV alone
  % Toxic Death: 0%
[1]; (xvii) 60 mg/kg IV alone
  % Toxic Death: 0%
[2]; (xvii) 7.5 mg/kg IV alone
  % Toxic Death: 0%
[2]; (xvii) 15 mg/kg IV alone
  % Toxic Death: 0%
[2]; (xvii) 25 mg/kg IV alone
  % Toxic Death: 0%
[3]; (xvii) 25 mg/kg IV alone
  % Toxic Death: 83%
[4]; (xvii) 30 mg/kg IV alone
  % Toxic Death: 33%

## Dolastatin-15
[5]
  inhibition of cell growth (in words): markedly inhibits the growth
[6]
  aqueous solubility (in words): poor aqueous solubility
